From patent US20220226480A1, “LIPID CONJUGATE PREPARED FROM SCAFFOLD MOIETY” (Integrated Nanotherapeutics Inc., priority 2019, published 2022)

Experiments:
[1] = Encapsulation efficiency / incorporation of pro-drug in LNP; assay type: physicochemical
Protocol: (§1) LNPs were prepared by dissolving 1,2-Distearoyl-sn-glycero-3-phosphocholine (DSPC) or 1,2-dimyristoyl-sn-glycero-3-phosphocholine (DMPC), cholesterol and 1,2-Distearoyl-sn-glycero-3-phosphoethanolamine-Poly(ethylene glycol) (PEG-DSPE) in ethanol. DSPC, DMPC and PEG-DSPE were purchased from Avanti Polar Lipids (Alabaster, Ala.), and cholesterol was obtained from Sigma (St Louis, Mo.).
(§2) Drug-lipid-conjugates INT-D034, INT-D035, INT-D045, INT-D046, INT-D047, INT-D048, INT-D049, INT-D050, INT-D051, INT-D053, INT-D060, INT-D061, INT-D062, INT-D063, INT-D083, INT-D085, INT-D086, INT-D088 and INT-D089 (see FIG. 3 and Example 7 for structures) were dissolved in isopropanol or THF. LNP were prepared by rapidly mixing DSPC or DMPC, cholesterol, drug-lipid conjugate, and PEG-DSPE (in molar ratio of 49/40/10/1) with phosphate-buffered saline (PBS) using a cross-junction mixer. Formulations were dialyzed against PBS to remove residual ethanol. In formulation$ with more than 10 mol % drug-lipid conjugates, the amount of phospholipid or cholesterol was reduced accordingly.
(§3) The physiochemical properties of the LNPs prepared as described above were subsequently characterized. Particle size was determined by dynamic light scattering using a Malvern Zetasizer Nano ZS (Malvern, UK) following buffer exchange into phosphate-buffered saline. Number-weighted size and distribution date was used. Lipid concentrations were determined by measuring total cholesterol using the Cholesterol E enzymatic assay kit from Wako Chemicals USA (Richmond, Va.). The morphology of LNP formulations containing LD-DEX was analyzed by cryogenic-transmission electron microscopy (cryoTEM).

[2] = Particle size and polydispersity of LNP containing pro-drug (dynamic light scattering); assay type: physicochemical; set-up: Size of LNP: unit not given here
Protocol: as §1, §2, §3

J774.2 = test: Pro-inflammatory cytokine expression in LPS-stimulated macrophage cell line J774.2 (qRT-PCR); assay type: cell-based; conditions: LNP formulation at doses equivalent to 1, 3 or 10 μM dexamethasone, 24 hours, 10 ng/mL LPS, versus control LNP
Protocol: (§4) The graph depicts the expression of the cytokines IL-1β (top), TNFα (middle) and IL-6 (bottom) after 24 hours of incubation of the cells with the above components at doses equivalent to 1, 3 or 10 μM of dexamethasone, followed by stimulation by 10 ng/mL lipopolysaccharide (LPS) overnight. Cytokine levels were measured by qRT-PCR and data was normalized to cells treated with control LNP without drug-lipid conjugates.
(§5) Cultured macrophage cell lines J774.2 (FIG. 8) and Raw264.7 (FIG. 9A) were incubated with immunostimulant LPS and LNP with or without ricinoleyl-dexamethasone conjugate INT-D034/INT-D035. After 24 hours, cells were harvested and were analyzed for expression of pro-Inflammatory cytokines IL1β, TNFα and IL-6. RNA was isolated from the cells and levels of pro-inflammatory cytokines ILIβ, TNFα and IL6 were determined by qRT-PCR.

Raw264.7 = test: Pro-inflammatory cytokine expression in LPS-stimulated Raw264.7 cells (qRT-PCR); assay type: cell-based; conditions: LNP formulation at doses equivalent to 1, 3 or 10 μM dexamethasone, 24 hours, 10 ng/mL LPS, versus control LNP
Protocol: as §4, with “IL-10” for “IL-1β”, “LPS” for “lipopolysaccharide (LPS)”
as §4, with “IL-10” for “IL-1β (top), TNFα (middle) and IL-6 (bottom)”, “1” for “1, 3”, “LPS” for “lipopolysaccharide (LPS)”
as §5

CD4+ T cells = test: Mixed lymphocyte reaction (MLR) assay, BMDCs with allogeneic CD4+ T cells; assay type: cell-based, mice; conditions: LNP containing 10-99 mol % conjugate; BMDCs treated 48 hours, LPS 24 hours; 5:1 or 10:1 T-to-BMDC ratio; 3 days; flow cytometry
Protocol: Bone marrow derived dendritic cells (BMDCs) from C57Bl/6 male mice were first treated with LNP containing various mol % of the dexamethasone or calcitriol conjugates for 48 hours and then activated by incubation with LIPS for 24 hours. They were then harvested and mixed with CD4+ T cells isolated from Balb/cJ male mice (Jackson Laboratories) at 5:1 or 10:1 T-to-BMDC ratio.
Dexamethasone and calcitriol can tolerize antigen presenting cells (APCs). […] Bone marrow derived dendritic cells (BMDCs) from C57BI/6 male mice (Charles River) were first treated with LNP containing various mol % of dexamethasone or calcitriol conjugates for 48 hours and then activated by incubation with LPS for 24 hours. They were then harvested and mixed with CD4+ T cells isolated from Balb/cl male mice (Jackson Laboratories) at 5:1 or 10:1 T-to-BMDC ratio. The levels of T cells proliferation after 3 days were quantified using flow cytometry.

[3] = LNP containing 10 mol % conjugate, primary PC-lipid DMPC
[4] = LNP formulations containing pro-drugs (10 mol %, FIG. 6A)
[5] = all LNP formulations at 0 to 99 mol % pro-drug concentration
[6] = LNP, pro-drug concentration 10 %
[7] = LNP, pro-drug concentration 20 %
[8] = LNP, pro-drug concentration 30 %
[9] = LNP, pro-drug concentration 40 %
[10] = LNP, pro-drug concentration 50 %
[11] = LNP, pro-drug concentration 60 %
[12] = LNP, pro-drug concentration 80 %
[13] = LNP, pro-drug concentration 95 %
[14] = LNP, pro-drug concentration 98 %
[15] = LNP, pro-drug concentration 99 %

Q: Which “Encapsulation Efficiency (%)” value [1, 3] does the source give for `CCCCCC[C@H](C/C=C\CCCCCCCCOC(=O)CCC(=O)OCC(=O)[C@@]1(O)[C@H](C)C[C@H]2[C@@H]3CCC4=CC(=O)C=C[C@]4(C)[C@@]3(F)[C@@H](O)C[C@@]21C)OC(=O)CCCCC` [INT-D034, 2-((8S,9R,10S,11S,13S,14S,16R,17R)-9-Fluoro-11,17-dihydroxy-10,13,16-trimethyl-3-oxo-6,7,8,9,10,11,12,13,14,15,16,17-dodecahydro-3H-cyclopenta[a]57ctadic57rene-17-yl)-2-oxoethyl ((R,Z)-12-(hexanoyloxy)57ctadic-9-en-1-yl) succinate] here?
A: 100%

Q: What about the “% Entrapment” value [1, 4] of the same compound?
A: 99%

Q: And the encapsulation efficiencies [1, 5]?
A: high

Q: And the “Particle Diameter (nm)” value [2, 3]?
A: 72 nm

Q: What about the “Polydispersity index (PDI)” value [2, 3] of the same compound?
A: 0.02

Q: And the PdI [2, 4]?
A: 0.08

Q: What about the “Size of LNP” value [2, 4] of the same compound?
A: 70

Q: And the PdI [2, 6]?
A: 0.064

Q: And the “Size (nm)” value [2, 6]?
A: 48 nm

Q: What about the PdI [2, 7] of the same compound?
A: 0.068

Q: What about the “Size (nm)” value [2, 7] of the same compound?
A: 45 nm

Q: What about the PdI [2, 8] of the same compound?
A: 0.082

Q: And the “Size (nm)” value [2, 8]?
A: 43 nm

Q: What about the PdI [2, 9] of the same compound?
A: 0.100

Q: And the “Size (nm)” value [2, 9]?
A: 41 nm

Q: And the PdI [2, 10]?
A: 0.085

Q: What about the “Size (nm)” value [2, 10] of the same compound?
A: 32 nm

Q: And the PdI [2, 11]?
A: 0.022

Q: What about the “Size (nm)” value [2, 11] of the same compound?
A: 48 nm

Q: What about the PdI [2, 12] of the same compound?
A: 0.025

Q: What about the “Size (nm)” value [2, 12] of the same compound?
A: 87 nm

Q: And the PdI [2, 13]?
A: 0.082

Q: What about the “Size (nm)” value [2, 13] of the same compound?
A: 29 nm

Q: What about the PdI [2, 14] of the same compound?
A: 0.014

Q: What about the “Size (nm)” value [2, 14] of the same compound?
A: 52 nm

Q: And the PdI [2, 15]?
A: 0.011

Q: And the “Size (nm)” value [2, 15]?
A: 86 nm

Q: And the “Polydispersity index (PDI)” value [2, 5]?
A: ≤ 0.1

Q: What about the particle diameter [2, 5] of the same compound?
A: 29-87 nm

Q: And the “levels of pro-inflammatory cytokines (IL1β, TNFα, IL-6)” value (J774.2)?
A: reduced levels of pro-inflammatory cytokines in a dose-dependent manner

Q: And the “levels of pro-inflammatory cytokines (IL1β, TNFα, IL-6)” value (Raw264.7)?
A: reduced levels of pro-inflammatory cytokines in a dose-dependent manner

Q: What about the “allogeneic T-cell proliferation” value (CD4+ T cells) of the same compound?
A: able to suppress allogeneic T-cell proliferation
